Measurements as given in patent publication US20260226041A1 (ARIGENX THERAPEUTICS CO., LTD., priority 2023, published 2026).

Tests used:
human AHR = molecular target: T1, human AHR (Homo sapiens, UniProt P35869); experiment: Human AHR agonist luciferase assay (CYP1A1 promoter Nano-luc reporter in HepG2 cells);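 also: stably transfected HepG2 clone, DRE-containing 1200 bp promoter region driving Nano-luc, treated 4 to 24 h with 11-point dilutions in tryptophan-free medium, medium-only wells as baseline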
T1 sequence (P35869 11-848): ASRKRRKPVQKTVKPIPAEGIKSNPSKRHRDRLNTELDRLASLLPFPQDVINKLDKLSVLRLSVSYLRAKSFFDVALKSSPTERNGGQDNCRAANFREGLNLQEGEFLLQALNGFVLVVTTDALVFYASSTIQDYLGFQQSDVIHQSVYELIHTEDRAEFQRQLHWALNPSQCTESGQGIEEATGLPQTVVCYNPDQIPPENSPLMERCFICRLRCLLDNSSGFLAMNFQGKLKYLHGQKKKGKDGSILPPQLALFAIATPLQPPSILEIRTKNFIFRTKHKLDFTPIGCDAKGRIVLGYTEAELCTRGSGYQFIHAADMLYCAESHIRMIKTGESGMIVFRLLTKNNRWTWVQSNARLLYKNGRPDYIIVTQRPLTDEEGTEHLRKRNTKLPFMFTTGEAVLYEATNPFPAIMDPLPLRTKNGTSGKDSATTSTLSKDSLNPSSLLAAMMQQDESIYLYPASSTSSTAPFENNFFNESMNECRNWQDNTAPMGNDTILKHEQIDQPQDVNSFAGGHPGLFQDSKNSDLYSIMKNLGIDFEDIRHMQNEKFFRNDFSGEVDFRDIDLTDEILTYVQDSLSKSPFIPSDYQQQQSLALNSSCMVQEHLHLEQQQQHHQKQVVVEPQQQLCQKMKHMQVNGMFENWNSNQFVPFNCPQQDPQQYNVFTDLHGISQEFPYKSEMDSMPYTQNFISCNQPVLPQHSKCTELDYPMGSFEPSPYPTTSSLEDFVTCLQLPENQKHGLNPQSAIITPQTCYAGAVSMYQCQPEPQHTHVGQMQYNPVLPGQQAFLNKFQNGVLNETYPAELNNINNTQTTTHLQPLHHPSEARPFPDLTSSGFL
Description: To detect AHR activation, a reporter gene plasmid was constructed by placing the gene sequence from −1200 bp to 0 bp upstream of CYP1A1 in front of a Nano-luc luciferase reporter gene according to conventional construction methods of reporter gene plasmids in the art. The reporter gene plasmid was transfected into human hepatoma HepG2 cells by a conventional liposome transfection method in the art, and stably expressing cells were selected by puromycin. The selected cells were diluted to a concentration of 5 cells/mL and seeded into a 96-well plate at 100 μL/well, and single clones were obtained after growth. A single clone with normal morphology, normal growth, and the highest induction signal was selected for the human AHR agonist luciferase assay.
On day one, the HepG2 monoclonal cell line stably expressing reporter gene was counted and seeded into a white opaque 96-well plate at a density of 1×10^4 cells per well −8×10^4 cells per well using 100 μL of complete medium without tryptophan and phenol red (minimal essential medium (MEM) without tryptophan and phenol red, 10% (v/v) fetal bovine serum, 1× non-essential amino acids, 1× sodium pyruvate, and 1× GlutaMax). The cells were cultured in an incubator maintained at 37° C. with 5% (v/v) CO2 for 24 hours.
Test compounds were prepared as 10 mmol/L stock solutions in dimethyl sulfoxide (DMSO) and stored at 4° C. protected from light. Before treatment, the compound stock solutions, positive control compounds (e.g., dioxin, 2-(1H-indole-3-carbonyl)thiazole-4-carboxylic acid methyl ester (ITE), or kynurenine), and a negative control compound (DMSO) were subjected to preliminary dilution (determined based on pre-experiments) with the complete medium without tryptophan and phenol red, followed by 3- to 20-fold serial dilutions to 11 concentration points to obtain 2× dilution solutions. When treating the cells, 50 μL of medium was first aspirated from the 96-well plate containing the seeded cells, and then 50 μL of the serially diluted 2× dilution solution was added. Each compound was tested in duplicate, and each duplicate experiment included a well with a concentration of 0 (i.e., containing only the medium) to determine the baseline. The reporter cells were returned to the incubator and incubated for 4 to 24 hours after treatment.
After treatment, 100 μL/well of Nano-Glo Luciferase Assay Reagent was added to the 96-well plate, and the relative light unit (RLU) of each well was measured. The RLU values for the wells with the concentration of 0 on the 96-well plates were averaged to calculate the baseline Ave RLU^Vehicle. The activity of AHR induced by the test compounds at different concentrations was calculated according to Formula (1) based on the ratio of RLU^Test Cmpd from the experimental groups to the baseline Ave RLU^Vehicle, to determine the activation fold.
The activation fold and the corresponding compound concentration were fitted using GraphPad Prism 9 with [Agonist] vs. response—variable slope (four parameters) to calculate the EC50 of the compound for AHR activation.

mouse AHR = mouse AHR (Mus musculus, UniProt P30561); experiment: Mouse AHR agonist luciferase assay (6x XRE Nano-luc reporter in Hepa1-6 cells);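 also: stable Hepa1-6 reporter line, 4–24 h exposure, 11-point serial dilution, Nano-Glo luminescence as fold over medium-only baseline, EC50 from four-parameter fit of activation fold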
mouse AHR, sequence (P30561 10-805 limits assumed): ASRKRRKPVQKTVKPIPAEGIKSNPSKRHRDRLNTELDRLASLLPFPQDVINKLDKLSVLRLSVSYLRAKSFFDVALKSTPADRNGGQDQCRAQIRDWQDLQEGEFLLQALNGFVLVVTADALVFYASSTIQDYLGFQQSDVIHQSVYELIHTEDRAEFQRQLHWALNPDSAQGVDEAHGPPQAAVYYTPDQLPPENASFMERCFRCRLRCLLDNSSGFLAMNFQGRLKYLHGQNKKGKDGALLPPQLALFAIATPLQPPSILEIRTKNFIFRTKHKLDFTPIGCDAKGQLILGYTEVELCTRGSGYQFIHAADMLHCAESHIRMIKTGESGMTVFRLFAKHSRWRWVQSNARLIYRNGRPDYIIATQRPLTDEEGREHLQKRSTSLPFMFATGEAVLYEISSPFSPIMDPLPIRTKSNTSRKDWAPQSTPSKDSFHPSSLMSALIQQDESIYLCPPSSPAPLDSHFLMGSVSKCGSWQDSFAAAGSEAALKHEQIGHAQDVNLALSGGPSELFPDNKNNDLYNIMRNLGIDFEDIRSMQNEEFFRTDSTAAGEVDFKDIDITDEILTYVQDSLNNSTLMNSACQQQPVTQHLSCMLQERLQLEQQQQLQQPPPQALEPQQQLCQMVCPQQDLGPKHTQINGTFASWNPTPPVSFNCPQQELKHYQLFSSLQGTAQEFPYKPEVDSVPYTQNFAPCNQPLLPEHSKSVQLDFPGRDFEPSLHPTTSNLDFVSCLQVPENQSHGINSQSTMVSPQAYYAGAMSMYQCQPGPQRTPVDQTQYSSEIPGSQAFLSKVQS
mouse AHR, sequence (P53762 whole entry partner): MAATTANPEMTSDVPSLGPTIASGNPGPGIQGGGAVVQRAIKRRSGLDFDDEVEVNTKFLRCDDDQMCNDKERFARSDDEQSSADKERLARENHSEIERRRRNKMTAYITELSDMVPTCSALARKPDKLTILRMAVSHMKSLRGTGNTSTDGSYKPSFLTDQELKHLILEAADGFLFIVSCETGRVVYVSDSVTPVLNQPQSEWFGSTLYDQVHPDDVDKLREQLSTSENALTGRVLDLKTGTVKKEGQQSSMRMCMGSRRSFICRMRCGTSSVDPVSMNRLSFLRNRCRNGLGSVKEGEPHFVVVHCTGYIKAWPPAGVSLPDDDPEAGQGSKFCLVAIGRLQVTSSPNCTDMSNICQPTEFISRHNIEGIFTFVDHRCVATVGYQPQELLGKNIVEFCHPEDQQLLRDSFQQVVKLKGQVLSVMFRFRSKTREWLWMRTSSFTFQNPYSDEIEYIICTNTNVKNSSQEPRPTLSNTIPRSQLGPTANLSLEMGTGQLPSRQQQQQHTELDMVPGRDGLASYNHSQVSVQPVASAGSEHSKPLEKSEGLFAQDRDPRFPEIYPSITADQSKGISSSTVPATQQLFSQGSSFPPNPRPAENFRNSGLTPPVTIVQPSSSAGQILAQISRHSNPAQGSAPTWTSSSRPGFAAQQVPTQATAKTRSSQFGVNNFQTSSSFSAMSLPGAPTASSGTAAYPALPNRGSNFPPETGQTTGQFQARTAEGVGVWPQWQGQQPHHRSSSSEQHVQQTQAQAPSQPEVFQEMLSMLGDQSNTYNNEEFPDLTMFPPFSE
Description: The reporter gene plasmid was transfected into mouse hepatoma Hepa1-6 cells by a conventional liposome transfection method in the art, and stably expressing cells were selected by puromycin for the mouse AHR agonist luciferase assay.
On day one, the stably expressing reporter gene Hepa1-6 cell line was counted and seeded into a white opaque 96-well plate at a density of 1×10^4 cells per well −8×10^4 cells per well using 100 μL of phenol red-free Dulbecco's Modified Eagle Medium (DMEM) (DMEM without phenol red, 10% fetal bovine serum). The cells were cultured in an incubator maintained at 37° C. with 5% CO2 for 24 hours.
Test compounds were prepared as 10 mM stock solutions in DMSO and stored at 4° C. protected from light. Before treatment, the compound stock solutions, positive control compounds (e.g., dioxin, ITE, or kynurenine), and a negative control compound (DMSO) were subjected to preliminary dilution (determined based on pre-experiments) with complete medium without tryptophan and phenol red, followed by 3- to 20-fold serial dilutions to 11 concentration points to obtain 10× dilution solutions. When treating the cells, 10 μL of medium was first aspirated from the 96-well plate containing the seeded cells, and then 10 μL of the serially diluted 10× dilution solution was added. Each compound was tested in duplicate, and each duplicate experiment included a well with a concentration of 0 (i.e., containing only medium) to determine the baseline. The reporter cells were returned to the incubator and incubated for 4 to 24 hours after treatment.
After treatment, 100 μL/well of Nano-Glo Luciferase Assay Reagent was added to the 96-well plate, and the RLU of each well was measured. The RLU values for the wells with the concentration of 0 on the 96-well plates were averaged to calculate the baseline Ave RLU^Vehicle The activity of AHR induced by the test compounds at different concentrations was calculated according to Formula (1) based on the ratio of RLU^Test Cmpd from the experimental groups to the baseline Ave RLU^Vehicle, to determine the activation fold.
The activation fold and the corresponding compound concentration were fitted using GraphPad Prism 9 with [Agonist] vs. response—variable slope (four parameters) to determine the EC50 of the compound for AHR activation.

rat AHR = molecular target: T2, rat AHR (Rattus norvegicus, UniProt P41738); experiment: Rat AHR agonist luciferase assay (6x XRE Nano-luc reporter in H-4-II-E cells); type: cell-based; details: AHR activation, rat hepatoma H-4-II-E reporter cells, incubated 4 to 24 hours; read-out: H4IIE EC50
T2 construct: The reporter gene was introduced into a genome of rat hepatoma H-4-II-E cells via lentiviral infection; endogenous in cells; host or cells: H-4-II-E (rat hepatoma) with a lentivirally integrated 6x XRE Nano-luc reporter
T2 sequence (P41738 10-853): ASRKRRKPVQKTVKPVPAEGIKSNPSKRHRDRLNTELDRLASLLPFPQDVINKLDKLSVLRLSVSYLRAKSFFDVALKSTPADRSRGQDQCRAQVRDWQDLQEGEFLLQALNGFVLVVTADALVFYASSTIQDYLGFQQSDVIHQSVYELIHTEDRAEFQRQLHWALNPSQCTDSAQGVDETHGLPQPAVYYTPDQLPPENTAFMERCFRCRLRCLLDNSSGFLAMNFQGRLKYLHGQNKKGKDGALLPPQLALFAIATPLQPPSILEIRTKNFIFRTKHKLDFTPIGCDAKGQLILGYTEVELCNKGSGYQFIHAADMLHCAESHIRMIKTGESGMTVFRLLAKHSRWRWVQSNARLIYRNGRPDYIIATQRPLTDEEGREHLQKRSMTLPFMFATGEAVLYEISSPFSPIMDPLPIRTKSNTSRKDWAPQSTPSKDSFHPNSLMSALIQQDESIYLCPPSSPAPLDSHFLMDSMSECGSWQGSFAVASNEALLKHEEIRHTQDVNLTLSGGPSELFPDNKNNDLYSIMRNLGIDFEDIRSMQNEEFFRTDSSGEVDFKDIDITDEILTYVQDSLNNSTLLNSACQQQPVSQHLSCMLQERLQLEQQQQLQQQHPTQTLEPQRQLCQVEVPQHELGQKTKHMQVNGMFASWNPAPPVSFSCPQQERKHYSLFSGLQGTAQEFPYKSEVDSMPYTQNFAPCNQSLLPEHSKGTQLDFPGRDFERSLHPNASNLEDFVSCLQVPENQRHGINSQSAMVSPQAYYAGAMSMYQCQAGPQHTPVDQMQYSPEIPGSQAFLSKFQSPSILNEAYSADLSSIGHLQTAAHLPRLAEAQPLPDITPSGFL
Description: A lentivirus containing the reporter gene was generated by co-transfecting the transfer plasmid with packaging plasmids into 293T cells using conventional transfection methods in the art, followed by purification. The reporter gene was introduced into a genome of rat hepatoma H-4-II-E cells via lentiviral infection, and cells stably expressing the reporter gene were selected with puromycin for the rat AHR agonist luciferase assay.

EC50 (human AHR) | EC50 (mouse AHR) | EC50 (rat AHR) | Compound
< 500 nM | < 100 nM | ≤ 10 nM | O=C(c1nc(C2(Cl)CCOC2=O)cs1)c1c[nH]c2cc(F)ccc12 (stereo not drawn) [Compound 4-2]
< 500 nM | < 100 nM | ≤ 10 nM | O=C(c1nc(C2(Cl)CCOC2=O)cs1)c1c[nH]c2ccccc12 (stereo not drawn) [Compound 4]
< 500 nM | < 100 nM | 2000 to 100000 nM | CN1CCC(c2csc(C(=O)c3c[nH]c4cc5c(cc34)OCO5)n2)C1=O (stereo not drawn) [Compound 7-6]

More lines, now with the values behind:

Compound | EC50 (human AHR) | EC50 (mouse AHR) | EC50 (rat AHR)
O=C(c1nc(C2(O)CCOC2=O)cs1)c1c[nH]c2cc(F)ccc12 (stereo not drawn) [Compound 2-2] | < 500 nM | < 100 nM | ≤ 10 nM
COc1ccc2c(C(=O)c3nc(C4(O)CCOC4=O)cs3)c[nH]c2c1 (stereo not drawn) [Compound 2-3] | < 500 nM | < 100 nM | ≤ 10 nM
O=C(c1nc(C2(O)CCOC2=O)cs1)c1c[nH]c2ccccc12 (stereo not drawn) [Compound 2] | < 500 nM | < 100 nM | ≤ 10 nM
COc1ccc2[nH]cc(C(=O)c3nc(C4CCN(C)C4=O)cs3)c2c1 (stereo not drawn) [Compound 7-5] | < 500 nM | < 100 nM | 2000 to 100000 nM
COC(=O)c1csc(C(=O)c2c[nH]c3ccccc23)n1 [ITE, 2-(1H-indole-3-carbonyl)thiazole-4-carboxylic acid methyl ester, reference compound] | < 500 nM | 100 to 2000 nM | 10 to 2000 nM
